Legend:
[1] = test system: rat primary OPC cultures; test: OPC differentiation in rat primary OPC cultures (MBP+Sox10+ cells); format: cell-based; conditions: 500 nM, 5 days in vitro
Method: Rat primary OPC cultures were obtained from neonatal pups (P0-P1). Brains were dissected, cerebellar cortices and meninges were removed. Brain tissues were next mechanically and enzymatically dissociated. After filtration and centrifugation, mixed cells of astrocytes, microglia and OPCs was cultured in DMEM medium on polyornithine-coated flasks. After 13-14 days of culture, microglial cells were removed by shaking during 2 h. OPCs were next collected after 18 h of shaking, followed by differential adhesion. OPCs purification was validated by immunostaining of Olig2 and Sox10. To induce differentiation, cells were kept in proliferation medium (DMEM-F12, 1% PS, FGF, PDGF, 1% laminin, Biotin, 2% B27, N1 mix) for 24 h and then switched to a differentiation medium with the same composition but deprived of FGF and PDGF. Cells were incubated at 37° C. (5% CO2) for 5 days and the medium was partially replaced every 2 days. Cells were then fixed in 2% paraformaldehyde and immunostained with Sox10 and MBP. Cells were incubated for 2 hours with primary antibodies Sox10 (Goat 1/100) and MBP (Rabbit 1/500) diluted in 4% BSA in PBS 0.1M/0.1% Triton. After washes, cells were then incubated with the secondary antibody (anti-Goat Alexa647, anti-Rabbit Alexa488 and Dapi) for 1 hour and finally washed in PBS 0.1M and mounted in Fluoromount medium. […]
Oligodendrocytes differentiation was assessed by analyzing the fold increase of MBP^+Sox10^+ cells in treated conditions relative to the basal condition. The percentage of MBP^+Sox10^+ cells were quantified after treatments with pan-VEGFRs and selective VEGFR-1 antagonists and compared with the basal medium. […] Myelination was assessed using organotypic cerebellar slices generated from P7 mice cerebellum and the effect of VEGFRs sub-types antagonists on myelination was analyzed after immunostaining for Sox10 for oligodendroglia, MBP for myelin (white) and calbindin (gray). […] The myelination index for each condition was quantified as the percentage of MBP+CaBP+ axons over the total CaBP+ axonal surface area and normalized relatively to basal condition.

[2] = test system: Purkinje cells; test: Neuroprotection of Purkinje cells in organotypic cerebellar slices (CaBP immunostaining); format: cell-based; conditions: 10 days in vitro, slices from P0 mouse
Method: (§1) Organotypic cerebellar slices were generated from brains of postnatal day 0 (P0) and P7 mouse pups. Briefly, cerebella were dissected and cut into 350 μm slices. Cerebellar slices from the vermis were collected and then cultured on Millicell cell culture inserts (Millipore) in 6-wellplates in a medium composed of 50% Basal Medium Eagle, 25% Hank solution (HBSS), 25% inactivated horse serum, 5 mg/ml high-glucose, 1 mM L-glutamine, 0.2% penicillin-streptomycin. Slices were incubated at 37° C. (5% CO2) for 10 days (slices from P0) or 3 days (slices from P7). The culture medium was replaced every 2-3 days. For immunohistochemistry, slices were fixed in 4% paraformaldehyde and immunostained for CaBP and MBP. Briefly, slices were incubated in 4% BSA/0.2% triton for 1 hour and next incubated overnight with the following primary antibodies: rabbit anti-CaBP (dilution: 1/10000) and rat anti-MBP (dilution: 1/250). After several washes in PBS 0.1M, slices were then incubated with the secondary antibodies (anti-rabbit alexaFluor555, anti-mouse alexaFluor488) and Dapi for 2 hours and finally washed in PBS 0.1M and mounted in Fluoromount medium. Flurorescence imaging were performed with a confocal microscopy NIKON A1R-HD25.
The neuroprotective effects of the drugs were assessed by evaluating the density of Purkinje cells in basal medium alone and in basal medium supplemented with VEGFRs inhibitors. Organotypic cerebellar slices obtained from P0 mouse (as described above) were cultured for 10 days in vitro in basal medium alone, or in the basal medium supplemented either with pan-VEGFRs inhibitors, VEGFR-2/3 specific inhibitor (Telatinib) or with VEGFR-1 selective and specific inhibitors (SU14813 and ZM306416), respectively. All compounds were used at 500 nM, except ZM306416 that was used at 30 μM. After treatments, slices were immunostained for CaBP, as described above.

[3] = test system: organotypic cerebellar slices; test: Myelination in organotypic cerebellar slices from P7 mice (MBP/CaBP); format: cell-based; conditions: 3 days ex vivo, slices from P7 mouse
Method: as §1
Oligodendrocytes differentiation was assessed by analyzing the fold increase of MBP^+Sox10^+ cells in treated conditions relative to the basal condition. The percentage of MBP^+Sox10^+ cells were quantified after treatments with pan-VEGFRs and selective VEGFR-1 antagonists and compared with the basal medium. Results are shown as differentiation fold increase relative to the basal condition. Myelination was assessed using organotypic cerebellar slices generated from P7 mice cerebellum and the effect of VEGFRs sub-types antagonists on myelination was analyzed after immunostaining for Sox10 for oligodendroglia, MBP for myelin (white) and calbindin (gray). Slices were cultured in basal medium (control condition), or in the basal medium supplemented either with 9cis-RA (used as a positive control of myelination) or with VEGFR-1 selective and specific inhibitor (SU14813 and ZM306416), respectively. All compounds were used at 500 nM, except ZM306416 that has been used at 30 μM. The myelination index for each condition was quantified as the percentage of MBP+CaBP+ axons over the total CaBP+ axonal surface area and normalized relatively to basal condition.

[4] = test system: rat primary OPC cultures; test: OPC differentiation (Olig2+MBP+ cells/Olig2+ cells) after VEGFR-1 shRNA or blocking peptide; format: cell-based; conditions: blocking peptide vs control (basal medium), 5 days in differentiation medium
Method: Rat primary OPC cultures were obtained from neonatal pups (P0-P1). Brains were dissected, cerebellar cortices and meninges were removed. Brain tissues were next mechanically and enzymatically dissociated. After filtration and centrifugation, mixed cells of astrocytes, microglia and OPCs was cultured in DMEM medium on polyornithine-coated flasks. After 13-14 days of culture, microglial cells were removed by shaking during 2 h. OPCs were next collected after 18 h of shaking, followed by differential adhesion. OPCs purification was validated by immunostaining of Olig2 and Sox10. To induce differentiation, cells were kept in proliferation medium (DMEM-F12, 1% PS, FGF, PDGF, 1% laminin, Biotin, 2% B27, N1 mix) for 24 h and then switched to a differentiation medium with the same composition but deprived of FGF and PDGF. Cells were incubated at 37° C. […]
For RT-qPCR, transduction at MOI 8 and MOI 2 were used. […] For immunocytochemistry, transfection with MOI 4 was used and labelling with Olig2 and MBP to quantify Olig2+MBP+ differentiated oligodendrocytes.
Our data confirmed efficient lentivirus transduction with multiplicity of infection 4 (MOI 4) and knock-down of VEGFR-1 (FIG. 5A). […] To do so, we quantified Olig2+MBP+ differentiated oligodendrocytes over the total Olig2+ oligodendroglial cells (ratio of Olig2+MBP+ cells/Olig2+ cells) for each condition.

[5] = test system: organotypic cerebellar slices; test: Myelination in organotypic cerebellar slices treated with VEGFR-1 blocking peptide; format: cell-based, mouse; conditions: 10 μM, from 5 to 10 days in vitro
Method: as §1
Mouse cerebellar slices were prepared as previously described. […]

Compound | number of SOX10+MBP+ differentiated oligodendrocytes relative to basal condition [1] | neuroprotection / number of Purkinje cells relative to basal condition ([2]; 500 nM) | MBP+ mature oligodendrocytes in organotypic cerebellar slices ([3]; 500 nM) | further results
CNC(=O)c1cc(COc2nnc(Nc3ccc(Cl)cc3)c3ccoc23)ccn1 [Telatinib] | significant increase | but not of VEGFR-2/3 (Telatinib), enhance neuroprotection | – | –
CNC(=O)c1cccc2cc(Oc3ccnc4cc(OCC5(N)CC5)c(OC)cc34)ccc12 [Lucitanib] | significant increase | higher number of Purkinje cells with respect to the basal condition | numerous MBP^+ mature oligodendrocytes | –
Cc1[nH]c(C=C2C(=O)Nc3ccc(F)cc32)c(C)c1C(=O)NC[C@H](O)CN1CCOCC1 [SU14813] | significant increase | enhance neuroprotection of Purkinje cells | numerous MBP^+ mature oligodendrocytes | myelination index (density of myelinated axons) vs basal, 9 cis-RA, VEGFR-2/3 inhibitor and pan-VEGFR inhibitors ([3]; 500 nM): density of myelinated axons was higher
COc1cc2ncnc(Nc3ccc(Cl)cc3F)c2cc1OC [ZM306416] | – | – | – | neuroprotection / number of Purkinje cells relative to basal condition ([2]; 30 μM): enhance neuroprotection of Purkinje cells; MBP+ mature oligodendrocytes in organotypic cerebellar slices ([3]; 30 μM): numerous MBP^+ mature oligodendrocytes; myelination index (density of myelinated axons) vs basal, 9 cis-RA, VEGFR-2/3 inhibitor and pan-VEGFR inhibitors ([3]; 30 μM): density of myelinated axons was higher
GNQWFI [VEGFR-1-blocking peptide] | – | – | – | fold increase in the number of Olig2+MBP+ cells [4]: 1.18±0.19 fold; ex-vivo myelination (MBP+CaBP+ myelinated axons) [5]: enhances ex-vivo myelination
